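Five compound concentrations were applied to cells in 96-well plates for 48 hours; endpoints were derived by simple linear interpolation of the resulting dose-response curve. GI50 is the concentration that inhibits growth by half. At the TGI there is no net growth.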
Columns and labels:
Experiment in all cases: NCI anticancer screen, dose series, 48 h
[1] = tested on: HCT-15 colon
[2] = tested on: HCT-116 colon
[3] = tested on: DLD-1 colon
[4] = tested on: SNB-78 CNS
[5] = tested on: M19-MEL melanoma
[6] = tested on: OVCAR-3 ovarian
[7] = tested on: SN12C renal
[8] = tested on: LOX IMVI melanoma
[9] = tested on: MDA-MB-435
[10] = tested on: PC-3 prostate

Row | SMILES | TGI [1] [µM] | TGI [2] [µM] | TGI [3] [µM] | TGI [4] [µM] | TGI [5] [µM] | TGI [6] [µM] | TGI [7] [µM] | GI50 [5] [µM] | TGI [8] [µM] | GI50 [1] [µM] | GI50 [2] [µM] | GI50 [3] [µM] | GI50 [4] [µM] | GI50 [8] [µM] | GI50 [6] [µM] | GI50 [7] [µM] | GI50 [9] [µM] | TGI [9] [µM] | GI50 [10] [µM] | TGI [10] [µM]
1 | COC12CCC(C(C(=O)c3ccccc3)=C1C(=O)c1ccccc1)C(O)C2 (stereo not given) | > 100 | > 100 | > 100 | > 100 | > 100 | > 100 | > 100 |  |  |  |  |  |  |  |  |  |  |  |  | 
2 | COc1cc(/C=C\c2ccc(Br)cc2)cc(OC)c1OC | 34.7 | > 100 | > 100 |  | > 100 |  | > 100 | 0.363 |  |  |  |  |  |  |  |  |  |  |  | 
3 | CC(NC(=O)C(=O)N/N=C1\C[C@@H](c2ccccc2)Nc2ccccc21)c1ccccc1 (stereo not given in full) |  | > 100 | > 100 | > 100 | > 100 | > 100 | > 100 |  | > 100 |  |  |  |  |  |  |  |  |  |  | 
4 | O=C1C(=O)N(c2nccs2)C(=O)C(=O)C1c1nc2ccccc2s1 | > 100 | > 100 | > 100 | > 100 | > 100 | > 100 | > 100 |  | > 100 |  |  |  |  |  |  |  |  |  |  | 
5 | CC(C)C(=O)[O-].CC(C)C(=O)[O-].N.N.N.N.[Co+3].[O-][Cl+3]([O-])([O-])[O-] | > 100 | > 100 | > 100 | > 100 |  | > 100 | > 100 |  | > 100 | > 100 | > 100 | > 100 | > 100 | > 100 | > 100 | > 100 |  |  |  | 
6 | O=C(N/C(=C\c1ccc(/C=C(\NC(=O)c2ccccc2)c2nc3ccccc3s2)cc1)c1nc2ccccc2s1)c1ccccc1 | 16 | 30.9 | 12 | 62.3 | 15.2 | 12.1 | 12.6 |  | 13.3 |  |  |  |  |  |  |  |  |  |  | 
7 | CC(=O)OC1CCC2C(=CCC3C2(C)C(=O)CC2(C)C(C4(C)OC(C(C)C)=CC4=O)C(O)CC32C)C1(C)C (stereo not given) | > 100 | > 10 | > 100 | > 100 | 47.7 | > 10 | > 100 |  |  |  |  |  |  |  |  |  |  |  |  | 
8 | CC(C)CC12CC3CCC(CNC1=O)C32C (stereo not given) |  | > 100 | > 100 | > 100 | > 100 | > 100 | > 100 |  | > 100 |  |  |  |  |  |  |  |  |  |  | 
9 | CC1(C(=O)O)CCOc2ccccc21 (stereo not given) | > 100 | > 100 | > 100 | > 100 | > 100 | > 100 | > 100 |  | > 100 |  |  |  |  |  |  |  |  |  |  | 
10 | CCOC(=O)c1ccc(N2C(=O)Cc3ccccc3C2=O)cc1 | > 100 | > 100 |  | > 100 | > 100 | > 100 | > 100 |  |  |  |  |  |  |  |  |  |  |  |  | 
11 | CS/C(c1ccccc1)=[N+](\[O-])Cc1ccccc1 | 32.9 | > 100 | > 100 | > 100 | > 100 | > 100 | > 100 |  | 31.6 |  |  |  |  |  |  |  |  |  |  | 
12 | CCOC(=O)C1=C(Nc2ccc(Br)cc2)OC/C1=N\NC(=O)c1ccccc1O | > 65.3 | > 62 | 97.3 | > 79.7 | > 100 | 77.7 | > 100 |  | 20.3 |  |  |  |  |  |  |  |  |  |  | 
13 | CCCCn1c2ccccc2c2ccc3c(c21)C(=O)C=CC3=O | > 100 | > 100 | > 100 | > 100 | 1.04 | > 100 | > 100 |  | > 100 |  |  |  |  |  |  |  |  |  |  | 
14 | O=c1cccccc1[O-].O=c1cccccc1[O-].O=c1cccccc1[O-].[Ce+3] | > 100 | 54.3 | > 100 | 63.2 |  | 35.5 | > 100 |  | > 100 |  |  | 16.7 | 15.4 |  |  | 25.7 |  |  |  | 
15 | Cc1ccc(C2=C(c3ccc(C)cc3)C(c3ccc(C)cc3)=C(c3ccc(C)cc3)C2=O)cc1 | > 100 | > 100 | > 100 | > 100 | > 100 |  | > 100 |  |  |  |  |  |  |  |  |  |  |  |  | 
16 | CCOC(=O)N1C(c2ccccc2)C=CC(c2ccccc2)N1C(=O)OCC (stereo not given) | > 100 | > 100 | > 100 | > 100 | > 100 | > 100 | > 100 |  | > 100 |  |  |  |  |  |  |  |  |  |  | 
17 | COc1ccc2c(CCNC(=O)/C=C/c3ccccc3)c(C(C)=O)[nH]c2c1[N+](=O)[O-] | > 100 | 87.2 |  | > 100 |  | > 100 | > 100 |  | 27.3 |  |  |  |  |  |  |  |  |  |  | 
18 | NCc1c(C(N)=O)ncn1Cc1ccccc1 | > 100 | > 100 |  | > 100 | > 100 | > 100 | > 100 |  | > 100 |  |  |  |  |  |  |  |  |  |  | 
19 | Cn1c(=O)c(C(=O)NC(=O)NCCCCCOC(=O)CCCCCCCCCCC(=O)OCCCCCNC(=O)NC(=O)c2cn(Cc3ccccc3)c(=O)n(C)c2=O)cn(Cc2ccccc2)c1=O | > 100 | > 100 | > 100 | > 100 | > 100 | > 100 | > 100 |  | > 100 |  |  |  |  |  |  |  |  |  |  | 
20 | O=C(Nc1ccc(Br)cc1)C(=O)C(C(=O)c1ccccc1F)C1OC(=O)c2ccccc21 (stereo not given) | > 100 | 35.6 | 80.1 | 72.6 | 42.7 | > 100 | 85 |  | 44.9 |  |  |  |  |  |  |  |  |  |  | 
21 | CCOC(=O)C(C)(C)Oc1ccc2c(-c3ccc(Cl)cc3)c(-c3ccc(Cl)cc3)c(=O)oc2c1 | > 100 | > 100 | > 100 |  | > 100 | > 100 | > 100 |  | > 100 |  |  |  |  |  |  |  |  |  |  | 
22 | CC(=O)[O-].[Zn].c1ccc(/C(=N\Nc2ccccn2)c2ccccn2)cc1 | 11.6 | 1.26 | 2.49 | 12.5 | 1.89 |  | 10.9 |  | 1.59 |  |  |  |  | 0.32 |  | 0.363 |  |  |  | 
23 | COC(=O)[C@]12CC[C@@H](C)[C@H](C)[C@@H]1C1=CC[C@@H]3[C@@]4(C)C(C=O)=C[C@@](C)(COS(C)(=O)=O)C4[C@H](O)C[C@@]3(C)[C@]1(C)CC2 (stereo not given in full) | 2.87 | 2.57 |  |  |  | 3.33 | 6.39 |  | 2.81 | 1.34 | 1.1 |  |  | 1.47 | 1.7 | 2.28 | 1.67 | 3.57 | 1.39 | 6.48
24 | Cc1ccc(C=NC23CC4CC(CC(C4)C2)C3)cc1 | > 100 | > 100 |  | > 100 | > 100 | > 100 | > 100 |  | > 100 |  |  |  |  |  |  |  |  |  |  | 
25 | CC1CCCc2c1c1ccc3c(O)cccc3c1oc2=O (stereo not given) | > 100 | > 100 | > 100 | > 100 | > 100 | > 100 | > 100 |  | > 100 |  |  |  |  |  |  |  |  |  |  | 

Reference: PubChem BioAssay (NCI)
